Measured values as given in US20190030036A1, “PHOSPHODIESTERASE INHIBITOR TREATMENT” (Cyrano Therapeutics, Inc., priority 2013, published 2019).
Marks after values point to notes of the source that are not given here.

System: patients with hyposmia
Assay: Smell function (DT, RT, ME, H) by forced-choice, three-stimuli, stepwise-staircase technique with four odors; open trial of oral theophylline
Format: in vivo, human
Text: Patients initially reported their sensory dysfunction as either loss of taste (e.g., flavor) and/or smell function. This subjective response was documented by objective psychophysical measurements of olfactory function administered to each patient by use of a forced-choice, three-stimuli, stepwise-staircase technique in a fixed, controlled design (1, 53). Efficacy of this technique and results of testing were previously documented in a double-blind clinical trial (53). Four odors were used; they were pyridine (dead-fish odor), nitrobenzene (bitter-almond odor), thiophene (petroleum-like odor) and amyl acetate (banana-oil odor). Detection thresholds (DT), recognition thresholds (RT) and magnitude estimation (ME) values for each odor were determined as previously described (1, 53). Thresholds were converted into bottle units (BU) as previously described (53) and results reported as M±SEM of correct responses for each odor in each treatment group; ME was reported in % and results calculated to obtain M±SEM for each treatment group for all correct responses using data for the four highest odor concentrations presented (from 10^−2M—an absolute odor concentration).
In addition, each patient graded the hedonic (H) value of each odor presented for these same odor concentrations (from 10^−2M—an absolute odor concentration using a −100−0−+100 scale). […] Results were obtained by calculating the arithmetical sum of each correct recognition response for each odor with respect to its pleasantness, unpleasantness or neutrality. Arithmetic M±SEM were obtained for each treatment group for each odor presented.
After determination of hyposmia, patients were treated in an open label, fixed design, controlled open trial. Patients were given an oral extended release theophylline in divided daily doses taken in the middle of breakfast and lunch. All patients were initially given 200 mg of theophylline; changes in this dose were made based upon subjective responses to therapy. If at a subsequent return visit, patients reported ≥5% subjective improvement in overall smell function, they continued on this same dose of theophylline and were reevaluated after four to six months of continued treatment. Results from any subsequent return from these improved patients were not included in any subsequent data report. All subsequent comparisons between treated and untreated patients were made only between those patients continuing in the study compared to their own measurements obtained in the untreated state. If patients reported <5% subjective improvement, their theophylline dose was increased by 200 mg daily and they were scheduled for retesting at the study site after two to four months at this new dosage. For patients that reported <5% improvement, this sequence continued until patients reached 800 mg of theophylline, at which time the study was considered completed.
Patients returned for reevaluation after two to four months of treatment. Measurements of blood serum theophylline were measured by a fluorescence polarization assay (Abbott, Chicago, Ill.). At this time, subjective changes in smell function were measured independently (compared to patient's memory of previous normal smell function monitored by use of the patients' daily measurements) using the scale from −100−0-+100 previously described. After independently recording their subjective responses, smell function was measured for all four odors with DT, RT, ME and H determined without recourse to prior measurements.
Since data for all measurements from each patient group (local or distant) on each dose level were combined mean and SEM for each measurement (DT, RT, ME, H) of smell function for each treatment group were calculated on this basis. Differences in measurements between before treatment and each treatment level were calculated and significance of differences estimated using Student t tests (values p<0.05 considered significant). […]

[1] = amyl acetate, oral theophylline 200 mg
[2] = amyl acetate, oral theophylline 200 mg daily, all patients (199)
[3] = amyl acetate, oral theophylline 200 mg, Type I hyposmia (57)
[4] = amyl acetate, oral theophylline 200 mg, Type II hyposmia (138)
[5] = amyl acetate, oral theophylline 200 mg, Type III hyposmia (4)
[6] = amyl acetate, oral theophylline 400 mg
[7] = amyl acetate, oral theophylline 400 mg daily, all patients (120)
[8] = amyl acetate, oral theophylline 400 mg, Type I hyposmia (33)
[9] = amyl acetate, oral theophylline 400 mg, Type II hyposmia (85)
[10] = amyl acetate, oral theophylline 400 mg, Type III hyposmia (2)
[11] = amyl acetate, oral theophylline 600 mg daily, all patients (160)
[12] = amyl acetate, oral theophylline 600 mg, Type I hyposmia (51)
[13] = amyl acetate, oral theophylline 600 mg, Type II hyposmia (105)
[14] = amyl acetate, oral theophylline 600 mg, Type III hyposmia (4)
[15] = amyl acetate, oral theophylline 800 mg daily, all patients (28)
[16] = amyl acetate, oral theophylline 800 mg, Type I hyposmia (12)
[17] = amyl acetate, oral theophylline 800 mg, Type II hyposmia (16)
[18] = nitrobenzene, oral theophylline 200 mg
[19] = nitrobenzene, oral theophylline 200 mg daily, all patients (199)
[20] = nitrobenzene, oral theophylline 200 mg, Type I hyposmia (57)
[21] = nitrobenzene, oral theophylline 200 mg, Type II hyposmia (138)
[22] = nitrobenzene, oral theophylline 200 mg, Type III hyposmia (4)
[23] = nitrobenzene, oral theophylline 400 mg
[24] = nitrobenzene, oral theophylline 400 mg daily, all patients (120)
[25] = nitrobenzene, oral theophylline 400 mg, Type I hyposmia (33)
[26] = nitrobenzene, oral theophylline 400 mg, Type II hyposmia (85)
[27] = nitrobenzene, oral theophylline 400 mg, Type III hyposmia (2)
[28] = nitrobenzene, oral theophylline 600 mg daily, all patients (160)
[29] = nitrobenzene, oral theophylline 600 mg, Type I hyposmia (51)
[30] = nitrobenzene, oral theophylline 600 mg, Type II hyposmia (105)
[31] = nitrobenzene, oral theophylline 600 mg, Type III hyposmia (4)
[32] = nitrobenzene, oral theophylline 800 mg daily, all patients (28)
[33] = nitrobenzene, oral theophylline 800 mg, Type I hyposmia (12)
[34] = nitrobenzene, oral theophylline 800 mg, Type II hyposmia (16)

SMILES: Cn1c(=O)c2[nH]cnc2n(C)c1=O [theophylline]
- increase of H values (more pleasant) [1]: 2%
- increase of ME values [1]: 5%
- DT, detection threshold [2]: 7.9 ± 0.2^c BU
- H, hedonic estimation [2]: 3 ± 1%
- ME, magnitude estimation [2]: 15 ± 2^d %
- RT, recognition threshold [2]: 9.9 ± 0.2^c BU
- DT, detection threshold [3]: 10.5 ± 0.3^d BU
- H, hedonic value [3]: 4 ± 2^a %
- ME, magnitude estimation [3]: 6 ± 2^a %
- RT, recognition threshold [3]: 11.3 ± 0.2^ BU
- DT, detection threshold [4]: 7.0 ± 0.3^ BU
- H, hedonic value [4]: 3 ± 2^ %
- ME, magnitude estimation [4]: 19 ± 2^ %
- RT, recognition threshold [4]: 9.3 ± 0.2^ BU
- DT, detection threshold [5]: 2.8 ± 0.5 BU
- H, hedonic value [5]: 14 ± 13%
- ME, magnitude estimation [5]: 32 ± 10%
- RT, recognition threshold [5]: 5.2 ± 1.6 BU
- ME increases [6]: 8%
- change of H values (became more pleasant) [6]: 1%
- DT, detection threshold [7]: 7.1 ± 0.3^b BU
- H, hedonic estimation [7]: 3 ± 2^ %
- ME, magnitude estimation [7]: 18 ± 2^c %
- RT, recognition threshold [7]: 9.3 ± 0.3^b BU
- DT, detection threshold [8]: 10.1 ± 0.5^a BU
- H, hedonic value [8]: 5 ± 3^a %
- ME, magnitude estimation [8]: 7 ± 3^a %
- RT, recognition threshold [8]: 11.2 ± 0.3^ BU
- DT, detection threshold [9]: 6.1 ± 0.4^a BU
- H, hedonic value [9]: 0.3 ± 2.8^ %
- ME, magnitude estimation [9]: 21 ± 3^ %
- RT, recognition threshold [9]: 8.8 ± 0.4^a BU
- DT, detection threshold [10]: 2 BU
- H, hedonic value [10]: 75%
- ME, magnitude estimation [10]: 75%
- RT, recognition threshold [10]: 3 BU
- DT, detection threshold [11]: 7.8 ± 0.3^a BU
- H, hedonic estimation [11]: 4 ± 1^ %
- ME, magnitude estimation [11]: 15 ± 2^c %
- RT, recognition threshold [11]: 9.6 ± 0.2^a BU
- DT, detection threshold [12]: 10.1 ± 0.3^a BU
- H, hedonic value [12]: −0.4 ± 1^ %
- ME, magnitude estimation [12]: 5 ± 2^a %
- RT, recognition threshold [12]: 11.1 ± 0.2^ BU
- DT, detection threshold [13]: 6.8 ± 0.3^a BU
- H, hedonic value [13]: 7 ± 2^ %
- ME, magnitude estimation [13]: 19 ± 2^ %
- RT, recognition threshold [13]: 8.9 ± 0.3^a BU
- DT, detection threshold [14]: 2.5 ± 1.0 BU
- H, hedonic value [14]: 28 ± 19%
- ME, magnitude estimation [14]: 31 ± 17%
- RT, recognition threshold [14]: 4.8 ± 1.7 BU
- DT, detection threshold [15]: 7.2 ± 0.8^ BU
- H, hedonic estimation [15]: 8 ± 5^ %
- ME, magnitude estimation [15]: 24 ± 2^a %
- RT, recognition threshold [15]: 9.0 ± 0.5^b BU
- DT, detection threshold [16]: 10.6 ± 0.5^ BU
- H, hedonic value [16]: −1 ± 4^ %
- ME, magnitude estimation [16]: 5 ± 3^a %
- RT, recognition threshold [16]: 11.6 ± 0.4^ BU
- DT, detection threshold [17]: 4.6 ± 0.7^a BU
- H, hedonic value [17]: 13 ± 9^ %
- ME, magnitude estimation [17]: 38 ± 6^c %
- RT, recognition threshold [17]: 7.1 ± 0.6^a BU
- increase of H values (more pleasant) [18]: 2%
- increase of ME values [18]: 5%
- DT, detection threshold [19]: 7.8 ± 0.2^d BU
- H, hedonic estimation [19]: 6 ± 2^a %
- ME, magnitude estimation [19]: 17 ± 2 ^ %
- RT, recognition threshold [19]: 9.5 ± 0.2^a BU
- DT, detection threshold [20]: 10.3 ± 0.3^a BU
- H, hedonic value [20]: 4 ± 2^a %
- ME, magnitude estimation [20]: 5 ± 2^a %
- RT, recognition threshold [20]: 11.2 ± 0.2^d BU
- DT, detection threshold [21]: 6.9 ± 0.3^a BU
- H, hedonic value [21]: 7 ± 2^ %
- ME, magnitude estimation [21]: 22 ± 2^ %
- RT, recognition threshold [21]: 8.8 ± 0.3^ BU
- DT, detection threshold [22]: 3.8 ± 0.7 BU
- H, hedonic value [22]: 13 ± 12%
- ME, magnitude estimation [22]: 33 ± 8%
- RT, recognition threshold [22]: 5.0 ± 0.6 BU
- ME increases [23]: 11%
- change of H values (became more pleasant) [23]: 4%
- DT, detection threshold [24]: 7.2 ± 0.3^c BU
- H, hedonic estimation [24]: 8 ± 3^a %
- ME, magnitude estimation [24]: 23 ± 2^a %
- RT, recognition threshold [24]: 8.9 ± 0.3^b BU
- DT, detection threshold [25]: 9.8 ± 0.5^a BU
- H, hedonic value [25]: 3 ± 3^a %
- ME, magnitude estimation [25]: 8 ± 3^a %
- RT, recognition threshold [25]: 10.9 ± 0.4^e BU
- DT, detection threshold [26]: 6.3 ± 0.4^a BU
- H, hedonic value [26]: 11 ± 3^ %
- ME, magnitude estimation [26]: 27 ± 3^a %
- RT, recognition threshold [26]: 8.2 ± 0.4^a BU
- DT, detection threshold [27]: 2.5 BU
- H, hedonic value [27]: −62%
- ME, magnitude estimation [27]: 79%
- RT, recognition threshold [27]: 4.0 BU
- DT, detection threshold [28]: 7.8 ± 0.3^a BU
- H, hedonic estimation [28]: 8 ± 2^d %
- ME, magnitude estimation [28]: 18 ± 2^d %
- RT, recognition threshold [28]: 9.1 ± 0.2^c BU
- DT, detection threshold [29]: 9.9 ± 0.4^c BU
- H, hedonic value [29]: 2 ± 2^ %
- ME, magnitude estimation [29]: 6 ± 2^a %
- RT, recognition threshold [29]: 10.8 ± 0.3^ BU
- DT, detection threshold [30]: 6.8 ± 0.3^a BU
- H, hedonic value [30]: 11 ± 2^ %
- ME, magnitude estimation [30]: 24 ± 2^ %
- RT, recognition threshold [30]: 8.4 ± 0.3^ BU
- DT, detection threshold [31]: 3.8 ± 0.9 BU
- H, hedonic value [31]: 12 ± 16%
- ME, magnitude estimation [31]: 33 ± 13%
- RT, recognition threshold [31]: 4.5 ± 1.3 BU
- DT, detection threshold [32]: 7.0 ± 0.8^d BU
- H, hedonic estimation [32]: 13 ± 7 ^ %
- ME, magnitude estimation [32]: 25 ± 6 ^ %
- RT, recognition threshold [32]: 7.8 ± 0.8^d BU
- DT, detection threshold [33]: 10.1 ± 0.8^ BU
- H, hedonic value [33]: 2 ± 2^a %
- ME, magnitude estimation [33]: 4 ± 3^a %
- RT, recognition threshold [33]: 11.3 ± 0.7^ BU
- DT, detection threshold [34]: 4.6 ± 0.9^a BU
- H, hedonic value [34]: 22 ± 11^ %
- ME, magnitude estimation [34]: 42 ± 8^b %
- RT, recognition threshold [34]: 5.1 ± 0.9^a BU
- total mean increase of ME for all odors (oral theophylline 200 mg): 5.1%
- increase of H values for amyl acetate (oral theophylline 200 mg daily, not statistically significant): 50%
- total mean increase of ME for all odors (oral theophylline 400 mg): 10.4%
- decrease of H values for thiophene (oral theophylline 400 mg daily): 40%
- increase of H values for nitrobenzene (oral theophylline 400 mg daily, not statistically significant): 50%
